From patent publication US5268308A, “Immunoassay for pyridostigmine” (priority 1989, dated 1993)

How the values were obtained:
Pyridostigmine Antibody = assay: Cross-reactivity with pyridostigmine antibody in RIA (competition with labeled pyridostigmine); assay type: binding, rabbit (male New Zealand white); conditions: labeled pyridostigmine 5000 DPM; maximum tested 500 ng
Procedure: Antibodies to the pyridostigmine-BSA immunogen were produced by injecting male New Zealand white rabbits. Prior to injection, the immunogen was emulsified with an equal volume of complete Freund's adjuvant, purchased from Difco Laboratories. The initial immunization consisted of 0.8 mg of protein injected intracutaneously into the back of the rabbits. Booster injections containing 0.8 mg of immunogen and incomplete Freund's adjuvant were administered every one or two months for the next seven months. Blood was collected one week after each booster injection from the central ear vein. The blood was allowed to clot at room temperature and then centrifuged at 1500×g for 15 minutes. The separated serum was stored frozen at -20° C. until assayed for the presence of pyridostigmine antibody. […] FIG. 1 is the antibody dilution curve for pyridostigmine.
In the assay procedure tritiated pyridostigmine having specificity of […] was used as tracer. The dilution of tracer, antisera and pyridostigmine standards were made using 0.01 M phosphate buffer containing 150 mM sodium chloride with a pH of 7.4.. […] Both standard and sample tubes were always analyzed in duplicate. The assay was carried out according to the protocol shown in. Table 1 with the reagents were added to the assay tubes in the order shown in.
According to the protocol for the RIA of the present invention, after the addition of antisera, the contents of the tubes were mixed and incubated for 3 hours at 4° C. The antigen which bound to the antibody was separated by adding 100% saturated ammonium sulfate and centrifuging at 2500×g for 15 minutes. After aspiration of the supernatant, the precipitate was washed one time with 50% saturated ammonium sulfate; then the mixture was centrifuged and the supernatent removed. The precipitate was dissolved in 1.0 ml of distilled water, and the solution was transferred to a scintillation vial containing 10.0 ml of acquasol.
Cross-reactivity of various compounds with pyridostigmine antibody was determined in the RIA. […] Each compound was tested for cross-reactivity with the antibody. The maximum concentration of each compound tested was 500 ng.

[1] = Pyridostigmine in various rat organs after intramuscular dose, by RIA; assay type: in vivo; conditions: 1.0 mg/kg i.m.
Procedure: To further validate the RIA and the antibody specificity of the present invention, additional rat studies were conducted. Male rats were housed two per cage at 23° C. with a twelve hour on-off light cycle. The animals were given food and water ad libitum. After sixty days, food was withheld for twelve hours. Then pyridostigmine was administered (1.0 mg. of pyridostigmine bromide in physiologic saline/Kg) intramuscularly to the rats weighing between 450 and 550 grams.
Groups of three animals were sacrificed by using inhalation anesthetic, Fluothane (0.01% thymol, w/w; and 0.00025% ammonia, w/w) Ayerst Laboratories, New York, N.Y. at various times after dosing, namely at 0, 5, 10, 15, 30, 60 minutes and at 2, 3, 4 and 6 hours. Blood was collected via heart puncture, and serum was separated by centrifugation at 2000 xg for 20 minutes. Table 4 gives the pyridostigmine level in the plasma of three male rats for each time interval as determined by the RIA of the present invention.
The brain, fat, heart, muscle and spleen were also removed from the sacrificed rats. The organs from each time period were pooled and kept frozen at -85° C. until analyzed. In preparing tissue homogenates for analysis, tissue samples were first brought to room temperature. Next the tissue samples were washed with ice-cold saline, blotted dry, weighed and homogenized in an ice-cold solution ([…], 0.5%. Triton X, 150 mM sodium chloride, pH 7.4; 2:1, v/w) with a Biohomogenizer (from Biospect Products Inc., Bartlesville, OK), cooling the tubes with ice as needed. The suspension was centrifuged at 15,000 ×g for 30 minutes at […] The supernatant was collected, and the pellet was mixed once more (1:1, w/v) with the solution, and centrifuged as described earlier. The supernatants for like samples were combined. The RIA of the present invention was then followed to determine the amounts of pyridostigmine in the various rat organs. The results of the RIA are given in.

[2] = cited from earlier work
acetylcholinesterase = conditions: cited from earlier work
patients = conditions: cited from earlier work
[3] = biological solutions, particularly plasma and blood; cited from earlier work
central nervous system = conditions: moderate doses; cited from earlier work

CN(C)C(=O)Oc1ccc[n+](C)c1 [Pyridostigmine]
IC 50 (50% inhibition of binding of 3H-pyridostigmine to the antibody) (Pyridostigmine Antibody): 4 ng | Pyridostigmine in rat organs ([1]; Brain, 1 HR): 5.06 ng/mg protein | Pyridostigmine in rat organs ([1]; Brain, 2 HR): 4.63 ng/mg protein | Pyridostigmine in rat organs ([1]; Brain, 3 HR): 3.92 ng/mg protein | Pyridostigmine in rat organs ([1]; Brain, 4 HR): 3.55 ng/mg protein | Pyridostigmine in rat organs ([1]; Brain, 6 HR): 2.62 ng/mg protein | Pyridostigmine in rat organs ([1]; Brain, 5 min): 3.63 ng/mg protein | Pyridostigmine in rat organs ([1]; Brain, 10 min): 7.65 ng/mg protein | Pyridostigmine in rat organs ([1]; Brain, 15 min): 6.32 ng/mg protein | Pyridostigmine in rat organs ([1]; Brain, 30 min): 6.11 ng/mg protein | Pyridostigmine in rat organs ([1]; Fat, 1 HR): 8.69 ng/mg protein | Pyridostigmine in rat organs ([1]; Fat, 2 HR): 6.46 ng/mg protein | Pyridostigmine in rat organs ([1]; Fat, 3 HR): 5.73 ng/mg protein | Pyridostigmine in rat organs ([1]; Fat, 4 HR): 3.26 ng/mg protein | Pyridostigmine in rat organs ([1]; Fat, 6 HR): 2.91 ng/mg protein | Pyridostigmine in rat organs ([1]; Fat, 5 min): 5.98 ng/mg protein | Pyridostigmine in rat organs ([1]; Fat, 10 min): 8.11 ng/mg protein | Pyridostigmine in rat organs ([1]; Fat, 15 min): 15.37 ng/mg protein | Pyridostigmine in rat organs ([1]; Fat, 30 min): 9.05 ng/mg protein | Pyridostigmine in rat organs ([1]; Heart, 1 HR): 78.29 ng/mg protein | Pyridostigmine in rat organs ([1]; Heart, 2 HR): 52.4 ng/mg protein | Pyridostigmine in rat organs ([1]; Heart, 3 HR): 48.57 ng/mg protein | Pyridostigmine in rat organs ([1]; Heart, 4 HR): 23.11 ng/mg protein | Pyridostigmine in rat organs ([1]; Heart, 6 HR): 8.52 ng/mg protein | Pyridostigmine in rat organs ([1]; Heart, 5 min): 43.78 ng/mg protein | Pyridostigmine in rat organs ([1]; Heart, 10 min): 57.5 ng/mg protein | Pyridostigmine in rat organs ([1]; Heart, 15 min): 70.4 ng/mg protein | Pyridostigmine in rat organs ([1]; Heart, 30 min): 75.96 ng/mg protein | Pyridostigmine in rat organs ([1]; Muscle, 1 HR): 9.46 ng/mg protein | Pyridostigmine in rat organs ([1]; Muscle, 2 HR): 4.99 ng/mg protein | Pyridostigmine in rat organs ([1]; Muscle, 3 HR): 4.8 ng/mg protein | Pyridostigmine in rat organs ([1]; Muscle, 4 HR): 3.94 ng/mg protein | Pyridostigmine in rat organs ([1]; Muscle, 6 HR): 3.08 ng/mg protein | Pyridostigmine in rat organs ([1]; Muscle, 5 min): 9.63 ng/mg protein | Pyridostigmine in rat organs ([1]; Muscle, 10 min): 13.57 ng/mg protein | Pyridostigmine in rat organs ([1]; Muscle, 15 min): 11.67 ng/mg protein | Pyridostigmine in rat organs ([1]; Muscle, 30 min): 10.08 ng/mg protein | Pyridostigmine in rat organs ([1]; Spleen, 1 HR): 2.48 ng/mg protein | Pyridostigmine in rat organs ([1]; Spleen, 2 HR): 2.40 ng/mg protein | Pyridostigmine in rat organs ([1]; Spleen, 3 HR): 2.03 ng/mg protein | Pyridostigmine in rat organs ([1]; Spleen, 4 HR): 1.92 ng/mg protein | Pyridostigmine in rat organs ([1]; Spleen, 6 HR): 1.86 ng/mg protein | Pyridostigmine in rat organs ([1]; Spleen, 5 min): 10.35 ng/mg protein | Pyridostigmine in rat organs ([1]; Spleen, 10 min): 6.26 ng/mg protein | Pyridostigmine in rat organs ([1]; Spleen, 15 min): 6.15 ng/mg protein | Pyridostigmine in rat organs ([1]; Spleen, 30 min): 4.44 ng/mg protein | stability ([2]; alkaline solutions): unstable in alkaline solutions | solubility ([2]; water and alcohol): freely soluble in water and alcohol | cholinesterase inhibition (acetylcholinesterase): reversible cholinesterase inhibitor | side effect on intravenous administration (patients; administered intraveneously): thrombophlebitis | adverse muscarinic effects (patients; certain patients): nausea, vomitin , diarrhea, miosis, excessive salivation and sweating, abdomimal cramps, bradycardia, bronchial secretion and bronchospasm | toxicity relative to therapeutic levels (patients; clinical use): toxic at levels very close to those which produce therapeutic results | other side effects (patients; human, in vivo): generalized weakness, muscle cramps, fasciculation, hypotension | effect of substantial over administration (patients; overdose): cholinergic crisis leading to death | in vitro hydrolysis [3]: extensive in vitro hydrolysis | effect on the central nervous system (central nervous system): usually do not effect the central nervous system
